Assay results taken from ChEMBL document CHEMBL5365537, “Development of LM-41 and AF-2112, two flufenamic acid-derived TEAD inhibitors obtained through the replacement of the trifluoromethyl group by aryl rings” (Bioorg Med Chem Lett, 2023).
Calls of active or inactive are those of the source. The calls are words filed in the database; no cut-off is given here.

Tests used:
[1] = molecular target: Transcriptional enhancer factor TEF-3 (Homo sapiens) (UniProt Q15561); test: Binding affinity to TEAD4 (unknown origin) assessed as change in aggregation temperature at 25 uM by DSLS thermal shift assay
[2] = molecular target: Transcriptional enhancer factor TEF-3 (Homo sapiens) (UniProt Q15561); test: Inhibition of TEAD4 in human MDA-MB-231 cells assessed as decrease in TEAD-dependent NF2 gene expression at 10 uM incubated for 24 hrs by RT-qPCR analysis; format: cell-based
[3] = molecular target: Transcriptional enhancer factor TEF-3 (Homo sapiens) (UniProt Q15561); test: Inhibition of TEAD4 in human MDA-MB-231 cells assessed as decrease in TEAD-dependent Cyr61 gene expression at 10 uM incubated for 24 hrs by RT-qPCR analysis; format: cell-based
MDA-MB-231 = test: Antimigratory activity against human MDA-MB-231 cells assessed as reduction in cell migration at 10 uM incubated for 48 hrs; format: functional, cell-based
[4] = molecular target: Transcriptional enhancer factor TEF-3 (Homo sapiens) (UniProt Q15561); test: Inhibition of TEAD4 in human MDA-MB-231 cells assessed as decrease in TEAD-dependent CTGF gene expression at 10 uM incubated for 24 hrs by RT-qPCR analysis; format: cell-based
[5] = molecular target: Transcriptional enhancer factor TEF-3 (Homo sapiens) (UniProt Q15561); test: Inhibition of TEAD4 in human MDA-MB-231 cells assessed as decrease in TEAD-dependent Axl gene expression at 10 uM incubated for 24 hrs by RT-qPCR analysis; format: cell-based
[6] = molecular target: Transcriptional enhancer factor TEF-3 (Homo sapiens) (UniProt Q15561); test: Binding affinity to TEAD4 (unknown origin) assessed as change in aggregation temperature at 25 uM by DSF assay

Chain of Transcriptional enhancer factor TEF-3 (Homo sapiens) (Q15561 whole entry): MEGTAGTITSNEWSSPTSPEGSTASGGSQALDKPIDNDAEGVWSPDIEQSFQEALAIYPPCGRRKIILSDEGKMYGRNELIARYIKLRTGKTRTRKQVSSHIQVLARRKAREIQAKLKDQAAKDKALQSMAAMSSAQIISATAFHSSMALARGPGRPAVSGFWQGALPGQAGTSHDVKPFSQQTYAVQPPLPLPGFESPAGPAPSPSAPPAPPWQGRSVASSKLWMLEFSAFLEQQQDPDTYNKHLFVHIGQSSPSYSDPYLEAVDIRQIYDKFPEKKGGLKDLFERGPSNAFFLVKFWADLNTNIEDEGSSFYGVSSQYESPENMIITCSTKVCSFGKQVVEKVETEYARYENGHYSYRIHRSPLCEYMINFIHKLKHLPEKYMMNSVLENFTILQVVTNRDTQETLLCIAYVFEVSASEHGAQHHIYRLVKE

Cc1cccc(Nc2cc(F)ccc2C(=O)O)c1
deltaT [1]: 4.7 °C

Cc1ccc(Nc2cccc(OCc3ccccc3)c2)c(C(=O)O)c1
inhibition [2]: Active | inhibition [3]: inactive | Activity (MDA-MB-231): Active | inhibition [4]: Active | inhibition [5]: inactive | deltaT [1]: 4 °C

O=C(O)c1ccc(F)cc1Nc1cccc(-c2ccccc2)c1
inhibition [2]: Active | inhibition [3]: Active | Activity (MDA-MB-231): Active | inhibition [4]: Active | inhibition [5]: Active | deltaT [1]: 3.4 °C

COc1ccccc1-c1cccc(Nc2cc(F)ccc2C(=O)O)c1
deltaT [1]: 1.3 °C

O=C(O)c1ccc(F)cc1Nc1cccc(-c2ccc(C(F)(F)F)cc2)c1
deltaT [1]: 4.5 °C

O=C(O)c1ccc(F)cc1Nc1cccc(Cc2ccccc2)c1
deltaT [1]: 3 °C

Cc1ccccc1Nc1cc(F)ccc1C(=O)O
deltaT [1]: 2.2 °C

O=C(O)c1cccnc1Nc1cccc(OCCc2ccccc2)c1
inhibition [2]: inactive | inhibition [3]: inactive | inhibition [4]: inactive | deltaT [6]: 3.6 °C | inhibition [5]: inactive

Cc1ccc(C(=O)O)c(Nc2cccc(OCc3ccccc3)c2)c1
deltaT [1]: 2.3 °C

Cc1ccc(Nc2cc(F)ccc2C(=O)O)cc1OCc1ccccc1
deltaT [1]: 3.8 °C

O=C(O)c1ccccc1Nc1cccc(C(F)(F)F)c1
inhibition [2]: inactive | inhibition [3]: inactive | Activity (MDA-MB-231): inactive | inhibition [4]: inactive | inhibition [5]: inactive

O=C(O)c1cccnc1Nc1cccc(C(F)(F)F)c1
inhibition [2]: inactive | inhibition [3]: inactive | inhibition [4]: inactive | inhibition [5]: inactive

O=C(O)c1ccc(F)cc1Nc1cccc(-c2cccnc2)c1
deltaT [1]: 0 °C

O=C(O)c1ccc(F)cc1Nc1ccccc1-c1cccs1
inhibition [2]: inactive | inhibition [3]: inactive | inhibition [4]: inactive | inhibition [5]: inactive | deltaT [1]: 5.5 °C

O=C(O)c1ccc(F)cc1Nc1cccc(OCCc2ccccc2)c1
inhibition [2]: Active | inhibition [3]: Active | Activity (MDA-MB-231): Active | inhibition [4]: Active | inhibition [5]: Active | deltaT [1]: 5.1 °C

O=C(O)c1ccc(F)cc1Nc1cccc(-c2ccccc2C(F)(F)F)c1
deltaT [1]: 2.5 °C

O=C(O)c1ccc(F)cc1Nc1cccc(-c2cccc(Cl)c2)c1
deltaT [1]: 3.1 °C

O=C(O)c1ccc(F)cc1Nc1cccc(-c2cccc(Br)c2)c1
deltaT [1]: 3.9 °C

COc1cccc(-c2cccc(Nc3cc(F)ccc3C(=O)O)c2)c1
deltaT [1]: 3.5 °C

Cc1ccc(Nc2cc(F)ccc2C(=O)O)cc1
deltaT [1]: 4 °C

O=C(O)c1ccccc1Nc1cccc(OCc2ccccc2)c1
deltaT [1]: 2.9 °C

O=C(O)c1cccnc1Nc1cccc(-c2cccc(C(F)(F)F)c2)c1
deltaT [1]: 4.8 °C

O=C(O)c1ccc(F)cc1Nc1cccc(CCc2ccccc2)c1
deltaT [1]: 5.6 °C

O=C(O)c1ccc(F)cc1Nc1cccc(COc2ccccc2)c1
deltaT [1]: 3 °C

O=C(O)c1ccc(F)cc1Nc1cccc(-c2cccc(F)c2)c1
deltaT [1]: 3.9 °C

COc1ccc(-c2cccc(Nc3cc(F)ccc3C(=O)O)c2)cc1
deltaT [1]: 2.7 °C

O=C(O)c1ccc(F)cc1Nc1cccc(OCc2ccccc2)c1
inhibition [2]: Active | inhibition [3]: inactive | inhibition [4]: Active | inhibition [5]: inactive | deltaT [1]: 3.8 °C

O=C(O)c1ccc(F)cc1Nc1cccc(-c2cccc(C(F)(F)F)c2)c1
deltaT [1]: 6.2 °C

O=C(O)c1ccccc1Nc1cccc(-c2ccccc2)c1
deltaT [1]: 2.1 °C

O=C(O)c1ccc(F)cc1Nc1cccc(-c2ccccn2)c1
deltaT [1]: 1 °C
